{"source": "patent EP0115690A1", "about": "“Dibenzocycloheptenylidenes” (AMERICAN HOME PRODUCTS CORPORATION, priority 1983, dated 1984)", "key": {"carrageenan paw edema": {"test_system": "carrageenan paw edema", "assay": "rat carrageenan edema test (hind paw)", "type": "in vivo, male Sprague-Dawley rats", "details": "for % Change From Control: paw edema 3 hours after carrageenan; for ED50: Rattus norvegicus, po, 3 h, read-out: dose exhibiting a 50% inhibition of edema", "procedure": "Groups of 6-8 male Sprague-Dawley rats weighing between 150-200 grams are used. Compounds of the invention, aspirin and indomethacin are administered orally in 0.5% methylcellulose. Vehicle alone is administered as a control. Sixty minutes after drug administration edema is induced by injection of 0.1 ml. of a 1% carrageenan solution in saline into the subplantar tissue of the rat's right hind paw. Two minutes later, paw volume is measured volumetrically with a plethysmograph and again 3 hours later. The mean volume of swelling for the control group is calculated and compared to the test groups. Percent change in paw edema is calculated and analysed statistically (unpaired, Student's t-test)."}, "[1]": {"test_system": "adjuvant arthritis (left paw edema)", "assay": "rat adjuvant arthritis (daily dosing) assay", "type": "in vivo, Sprague-Dawley rats", "details": "for % Change of Left Paw Edema at Day 16: daily regimen; for ED50: Rattus norvegicus, po, 384 h, read-out: estimated ED50", "procedure": "The ability of the compounds of the invention to inhibit immunologic-induced (chronic) inflammation is tested in adjuvant arthritis (daily dosing) assay.\nPolyarthritis is induced in groups of 6-10 Sprague-Dawley rats weighing between 180-220 g. by a subcutaneous injection into the right paw of dessicated Mycobacterium butyricum or tuberculosis (0.5 mg/0.1 ml) suspended in light mineral oil. Compounds of the invention, aspirin and indomethacin are administered orally in 0.5% methylcellulose using a daily regimen (except for weekends). Both hind paw volumes (ml.) are measured by mercury plethysmograph on day 0 or at the time of injection of the complete adjuvant. Increases in paw volume (viz. edema) are determined for the left paw on day 16. Statistical analysis of differences in paw edemas is performed by using the unpaired, Student's t-test."}, "[2]": {"assay": "anti-inflammatory activity, comparison of isomers (test not specified)", "type": "in vivo", "details": "E-isomer versus Z-isomer"}}}
{"smiles": "O=C(O)/C=C1/c2ccccc2C=Cc2ccc(Cl)cc21", "note": "[Example 1G, Z-(3-Chloro-5H-dibenzo[a,d]cyclohepten-5-ylidene) acetic acid]", "values": [{"measurement": "% Change From Control", "setting": "carrageenan paw edema; oral dose 100-200 mg/kg", "result": -20, "unit": "%"}, {"measurement": "% Change of Left Paw Edema at Day 16", "setting": "[1]; oral dose 25 mg/kg", "result": -28, "unit": "%"}]}
{"smiles": "O=C(O)/C=C1\\c2ccccc2C=Cc2ccc(Cl)cc21", "note": "[Example 1H]", "values": [{"measurement": "oral doses that inhibit carrageenan paw edema", "setting": "carrageenan paw edema", "result": "20 to 200", "unit": "mg/kg"}, {"measurement": "% Change From Control", "setting": "carrageenan paw edema; oral dose 20 mg/kg", "result": -33, "unit": "%"}, {"measurement": "% Change From Control", "setting": "carrageenan paw edema; oral dose 60 mg/kg", "result": -53, "unit": "%"}, {"measurement": "% Change From Control", "setting": "carrageenan paw edema; oral dose 180 mg/kg", "result": -68, "unit": "%"}, {"measurement": "% Change of Left Paw Edema at Day 16", "setting": "[1]; oral dose 25 mg/kg", "result": -59, "unit": "%"}, {"measurement": "anti-inflammatory activity relative to its Z-isomer", "setting": "[2]", "result": "several times more active"}]}
{"smiles": "O=C(O)/C=C1/c2ccccc2C=Cc2cc(Cl)ccc21", "note": "[Example 2G]", "values": [{"measurement": "% Change From Control", "setting": "carrageenan paw edema; oral dose 200 mg/kg", "result": "~-38", "unit": "%"}]}
{"smiles": "O=C(O)/C=C1\\c2ccccc2C=Cc2cc(Cl)ccc21", "note": "[Example 2H]", "values": [{"measurement": "% Change From Control", "setting": "carrageenan paw edema; oral dose 200 mg/kg", "result": -49, "unit": "%"}, {"measurement": "% Change of Left Paw Edema at Day 16", "setting": "[1]; oral dose 25 mg/kg", "result": -59, "unit": "%"}]}
{"smiles": "COc1ccc2c(c1)C(=CC(=O)O)c1ccccc1C=C2", "note": "[Example 4F, (3-Methoxy-5H-dibenzo[a,d]cyclohepten-5-ylidene)acetic acid]", "values": [{"measurement": "% Change From Control", "setting": "carrageenan paw edema; oral dose >200 mg/kg", "result": -50, "unit": "%"}, {"measurement": "% Change of Left Paw Edema at Day 16", "setting": "[1]; oral dose 15 mg/kg", "result": -50, "unit": "%"}]}
{"smiles": "O=C(O)C(Cl)=C1c2ccccc2C=Cc2ccccc21", "note": "[Example 6E]", "values": [{"measurement": "% Change From Control", "setting": "carrageenan paw edema; oral dose 200 mg/kg", "result": -31, "unit": "%"}]}
{"smiles": "C1=Cc2ccccc2C(=Cc2nnn[nH]2)c2ccccc21", "note": "[Example 7B, 5-(5H-Dibenzo[a,d]cyclohepten-5-ylidenemethyl) 1H-tetrazole]", "values": [{"measurement": "% Change From Control", "setting": "carrageenan paw edema; oral dose 200 mg/kg", "result": "~-38", "unit": "%"}]}
{"smiles": "O=C(O)C=C1c2ccccc2C=C(Br)c2ccccc21", "note": "[Example 8, E- and Z-(10-bromo-5H-dibenzo[a,d]cyclohepten-5-ylidene) acetic acid]", "values": [{"measurement": "% Change From Control", "setting": "carrageenan paw edema; oral dose 200 mg/kg", "result": -34, "unit": "%"}, {"measurement": "% Change of Left Paw Edema at Day 16", "setting": "[1]; oral dose 25-50 mg/kg", "result": "-25 to -50", "unit": "%"}]}
{"smiles": "O=C(O)C=C1c2ccccc2C=Cc2ccc(F)cc21", "note": "[Example 9]", "values": [{"measurement": "oral doses that inhibit carrageenan paw edema", "setting": "carrageenan paw edema", "result": "20 to 200", "unit": "mg/kg"}, {"measurement": "% Change From Control", "setting": "carrageenan paw edema; oral dose 200 mg/kg", "result": -58, "unit": "%"}, {"measurement": "% Change of Left Paw Edema at Day 16", "setting": "[1]; oral dose 100-200 mg/kg", "result": -40, "unit": "%"}]}
{"smiles": "COc1ccc2c(c1)c(CC(=O)O)c(C)n2C(=O)c1ccc(Cl)cc1", "note": "[Indomethacin, reference compound]", "values": [{"measurement": "ED50", "setting": "carrageenan paw edema", "result": "~5.6", "unit": "mg/kg"}, {"measurement": "ED50", "setting": "[1]", "result": 0.9, "unit": "mg/kg"}]}
{"smiles": "CC(=O)Oc1ccccc1C(=O)O", "note": "[aspirin, reference compound]", "values": [{"measurement": "ED50", "setting": "carrageenan paw edema", "result": "~250", "unit": "mg/kg"}, {"measurement": "ED50", "setting": "[1]", "result": "~140", "unit": "mg/kg"}]}
